Measured values reported in patent US7160888B2, “[1,8]naphthyridin-2-ones and related compounds for the treatment of schizophrenia” (Warner Lambert Company LLC, priority 2003, dated 2007).

Target: D2 receptor (Homo sapiens, UniProt P14416)
Assay: [3H]Thymidine uptake assay for D2 intrinsic activity
Type: cell-based
Conditions: test compound 1 μM, 1 μM Quinpirole = 100% intrinsic activity
Description: D2 intrinsic activity of title compounds of the Examples, below, was determined using the [^3H]thymidine uptake assay described below.
[^3H]Thymidine Uptake Assay for D2 Intrinsic Activity
Cells are serum deprived by washing twice with 200 μl of serum-free media. 90 μl serum-free media was added to each well. The plates ware incubated for two to three hours. 10 μl of serum-containing media, as a positive control, vehicle (serum-free media), negative control (an antagonist) or test compounds and standards (10 μl of a 10 μM solution for a final concentration of 1 μM) in serum-free media were added to wells. The plates are returned to the incubator. Eighteen hours later [^3H]thymidine is added (0.5 μCi/well in 10 μl of serum-free media) and the plates are returned to the incubator. […] The plates are returned to the incubator, once again. One hour later the assay is terminated by rapid filtration through Whatman GF/C glass fiber filters. Filters are washed four times with 500 ml of 50 mM Tris-HCl pH 7.0 buffer, for example, using a Brandel MLR-96T cell harvester. […] Intrinsic activity is defined as total uptake (1 μM Quinpirole) minus serum-free media (no uptake). Test compounds are compared to 1 μM Quinpirole (full DA agonist), which was classified as 100% intrinsic activity.

Chain of D2 receptor (P14416 whole entry): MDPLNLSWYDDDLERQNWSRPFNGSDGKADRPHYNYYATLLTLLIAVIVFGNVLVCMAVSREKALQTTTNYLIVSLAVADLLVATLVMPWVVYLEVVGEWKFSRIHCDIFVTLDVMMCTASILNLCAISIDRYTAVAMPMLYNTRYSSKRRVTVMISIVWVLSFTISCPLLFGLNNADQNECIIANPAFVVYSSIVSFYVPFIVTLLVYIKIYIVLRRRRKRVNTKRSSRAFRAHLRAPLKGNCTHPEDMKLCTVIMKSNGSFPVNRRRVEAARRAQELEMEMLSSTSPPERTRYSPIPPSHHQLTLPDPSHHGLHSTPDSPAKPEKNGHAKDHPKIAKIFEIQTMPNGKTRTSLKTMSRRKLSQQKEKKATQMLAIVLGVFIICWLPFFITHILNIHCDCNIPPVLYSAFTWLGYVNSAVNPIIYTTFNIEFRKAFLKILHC

Structure (SMILES)	Emax at 1 µM (Table 1) [%]	Emax at 1 µM (Table 2) [%]
CC1CC(=O)Nc2nc(OCCCCN3CCN(c4cccc(Cl)c4Cl)CC3)ccc21 (single isomer, unassigned) [Example D2a, 7-{4-[4-(2,3-Dichloro-phenyl)-piperazin-1-yl]-butoxy}-4-methyl-3,4-dihydro-1H-[1,8]naphthyridin-2-one]	20	
CC1Cc2ccc(OCCCCN3CCN(c4cccc(Cl)c4Cl)CC3)nc2NC1=O (single isomer, unassigned) [Example D6a, 7-{4-[4-(2,3-Dichloro-phenyl)-piperazin-1-yl]-butoxy}-3-methyl-3,4-dihydro-1H-[1,8]naphthyridin-2-one]	17	
O=C1CCc2ccc(OCCCCN3CCN(c4cccc5[nH]c(=O)oc45)CC3)nc2N1 [Example A1′, 7-{4-[4-(2-Oxo-2,3-dihydro-benzooxazol-7-yl)-piperazin-1-yl]-butoxy}-3,4-dihydro-1H-[1,8]naphthyridin-2-one]		73
O=C1CCc2ccc(OCCCCN3CCN(c4cccc5c4OCC5)CC3)nc2N1 [Example A2′, 7-{4-[4-(2,3-Dihydro-benzofuran-7-yl)-piperazin-1-yl]-butoxy}-3,4-dihydro-1H-[1,8]naphthyridin-2-one]		21
CC1(C)Cc2cccc(N3CCN(CCCCOc4ccc5c(n4)NC(=O)CC5)CC3)c2O1 [Example A3′, 7-{4-[4-(2,2-Dimethyl-2,3-dihydro-benzofuran-7-yl)-piperazin-1-yl]-butoxy}-3,4-dihydro-1H-[1,8]naphthyridin-2-one]		37
O=C1CCc2ccc(OCCCCN3CCN(c4cccc5c4OCCC5)CC3)nc2N1 [Example A4′, 7-[4-(4-Chroman-8-yl-piperazin-1-yl)-butoxy]-3,4-dihydro-1H-[1,8]naphthyridin-2-one]		18
CC1(C)C=Cc2cccc(N3CCN(CCCCOc4ccc5c(n4)NC(=O)CC5)CC3)c2O1 [Example A5′, 7-{4-[4-(2,2-Dimethyl-2H-chromen-8-yl)-piperazin-1-yl]-butoxy}-3,4-dihydro-1H-[1,8]naphthyridin-2-one]		31
CC1(C)CCc2cccc(N3CCN(CCCCOc4ccc5c(n4)NC(=O)CC5)CC3)c2O1 [Example A6′, 7-{4-[4-(2,2-Dimethyl-chroman-8-yl)-piperazin-1-yl]-butoxy}-3,4-dihydro-1H-[1,8]naphthyridin-2-one]		42
O=C1CCc2ccc(OCCCCN3CCN(c4cccc5c4OC4(C=C5)CCCC4)CC3)nc2N1 [Example A7′, 7-{4-[4-(Spiro[chromene-2,1′-cyclopentan]-8-yl)-piperazin-1-yl]-butoxy}-3,4-dihydro-1H-[1,8]naphthyridin-2-one]		34
O=C1CCc2ccc(OCCCCN3CCN(c4ccc(F)c(Cl)c4Cl)CC3)nc2N1 [Example A8, 7-{4-[4-(2,3-Dichloro-4-fluoro-phenyl)-piperazin-1-yl]-butoxy}-3,4-dihydro-1H-[1,8]naphthyridin-2-one]	7	
O=C1CCc2ccc(OCCCCN3CCN(c4cccc5c4OC4(CCCC4)CC5)CC3)nc2N1 [Example A8′, 7-{4-[4-(3,4-Dihydrospiro[chromene-2,1′-cyclopentan]-8-yl)-piperazin-1-yl]-butoxy}-3,4-dihydro-1H-[1,8]naphthyridin-2-one]		30
O=C1CCc2ccc(OCCCCN3CCN(c4ccc(F)cc4Cl)CC3)nc2N1 [Example A9, 7-{4-[4-(2-Chloro-4-fluoro-phenyl)-piperazin-1-yl]-butoxy}-3,4-dihydro-1H-[1,8]naphthyridin-2-one]	9	
CC1C=Cc2cccc(N3CCN(CCCCOc4ccc5c(n4)NC(=O)CC5)CC3)c2O1 (stereo not drawn) [Example A9′, 7-{4-[4-(2-Methyl-2H-chromen-8-yl)-piperazin-1-yl]-butoxy}-3,4-dihydro-1H-[1,8]naphthyridin-2-one]		30
O=C1CCc2ccc(OCCCCN3CCN(c4ccccc4-c4ccccc4)CC3)nc2N1 [Example A11, 7-[4-(4-Biphenyl-2-yl-piperazin-1-yl)-butoxy]-3,4-dihydro-1H-[1,8]naphthyridin-2-one]	6	
O=C1CCc2ccc(OCCCCN3CCN(c4cccc5c4CCO5)CC3)nc2N1 [Example A11′, 7-{4-[4-(2,3-Dihydro-benzofuran-4-yl)-piperazin-1-yl]-butoxy}-3,4-dihydro-1H-[1,8]naphthyridin-2-one]		17
O=C1CCc2ccc(OCCCCN3CCN(c4cc(Cl)ccc4Cl)CC3)nc2N1 [Example A12, 7-{4-[4-(2,5-Dichloro-phenyl)-piperazin-1-yl]-butoxy}-3,4-dihydro-1H-[1,8]naphthyridin-2-one]	11	
Cc1cc(N2CCN(CCCCOc3ccc4c(n3)NC(=O)CC4)CC2)c(Cl)cc1F [Example A13, 7-{4-[4-(2-Chloro-4-fluoro-5-methyl-phenyl)-piperazin-1-yl]-butoxy}-3,4-dihydro-1H-[1,8]naphthyridin-2-one]	21	
O=C1CCc2ccc(OCCCCN3CCN(c4cccc5c4CCCO5)CC3)nc2N1 [Example A13′, 7-[4-(4-Chroman-5-yl-piperazin-1-yl)-butoxy]-3,4-dihydro-1H-[1,8]naphthyridin-2-one]		14

Structure (SMILES)	Emax at 1 µM (Table 1) [%]	Emax at 1 µM (Table 2) [%]
Cc1ccc(Cl)cc1N1CCN(CCCCOc2ccc3c(n2)NC(=O)CC3)CC1 [Example A14, 7-{4-[4-(5-Chloro-2-methyl-phenyl)-piperazin-1-yl]-butoxy}-3,4-dihydro-1H-[1,8]naphthyridin-2-one]	7	
Cc1c(F)ccc(N2CCN(CCCCOc3ccc4c(n3)NC(=O)CC4)CC2)c1Cl [Example A15, 7-{4-[4-(2-Chloro-4-fluoro-3-methyl-phenyl)-piperazin-1-yl]-butoxy}-3,4-dihydro-1H-[1,8]naphthyridin-2-one]	4	
CCc1cccc(N2CCN(CCCCOc3ccc4c(n3)NC(=O)CC4)CC2)c1 [Example A16, 7-{4-[4-(3-Ethyl-phenyl)-piperazin-1-yl]-butoxy}-3,4-dihydro-1H-[1,8]naphthyridin-2-one]	16	
O=C1CCc2ccc(OCCCCN3CCN(c4cccc5c4OCCO5)CC3)nc2N1 [Example A16′, 7-{4-[4-(2,3-Dihydro-benzo[1,4]dioxin-5-yl)-piperazin-1-yl]-butoxy}-3,4-dihydro-1H-[1,8]naphthyridin-2-one]		15
COc1c(Cl)cccc1N1CCN(CCCCOc2ccc3c(n2)NC(=O)CC3)CC1 [Example A17, 7-{4-[4-(3-Chloro-2-methoxy-phenyl)-piperazin-1-yl]-butoxy}-3,4-dihydro-1H-[1,8]naphthyridin-2-one]	15	
O=C1CCc2ccc(OCCCCN3CCN(c4cccc5c4OCCCO5)CC3)nc2N1 [Example A17′, 7-{4-[4-(3,4-Dihydro-2H-benzo[b][1,4]dioxepin-6-yl)-piperazin-1-yl]-butoxy}-3,4-dihydro-1H-[1,8]naphthyridin-2-one]		15
O=C1CCc2ccc(OCCCCN3CCN(c4cccc5c4OC(F)(F)C(F)(F)O5)CC3)nc2N1 [Example A18′, 7-{4-[4-(2,2,3,3-Tetrafluoro-2,3-dihydro-benzo[1,4]dioxin-5-yl)-piperazin-1-yl]-butoxy}-3,4-dihydro-1H-[1,8]naphthyridin-2-one]		13
COc1cccc(N2CCN(CCCCOc3ccc4c(n3)NC(=O)CC4)CC2)c1OC [Example A19, 7-{4-[4-(2,3-Dimethoxy-phenyl)-piperazin-1-yl]-butoxy}-3,4-dihydro-1H-[1,8]naphthyridin-2-one]	10	
O=C1CCc2ccc(OCCCCN3CCN(c4cccc5c4OC(F)(F)O5)CC3)nc2N1 [Example A19′, 7-{4-[4-(2,2-Difluoro-benzo[1,3]dioxol-4-yl)-piperazin-1-yl]-butoxy}-3,4-dihydro-1H-[1,8]naphthyridin-2-one]		40
CCOc1ccccc1N1CCN(CCCCOc2ccc3c(n2)NC(=O)CC3)CC1 [Example A20, 7-{4-[4-(2-Ethoxy-phenyl)-piperazin-1-yl]-butoxy}-3,4-dihydro-1H-[1,8]naphthyridin-2-one]	19	
CC1(C)COc2c(cccc2N2CCN(CCCCOc3ccc4c(n3)NC(=O)CC4)CC2)C1=O [Example A21′, 7-{4-[4-(3,3-Dimethyl-4-oxo-chroman-8-yl)-piperazin-1-yl]-butoxy}-3,4-dihydro-1H-[1,8]naphthyridin-2-one]		24
COc1cccc(N2CCN(CCCCOc3ccc4c(n3)NC(=O)CC4)CC2)c1Cl [Example A22, 7-{4-[4-(2-Chloro-3-methoxy-phenyl)-piperazin-1-yl]-butoxy}-3,4-dihydro-1H-[1,8]naphthyridin-2-one]	36	
O=C1CCc2ccc(OCCCCN3CCN(c4cccc5ccoc45)CC3)nc2N1 [Example A23′, 7-[4-(4-Benzofuran-7-yl-piperazin-1-yl)-butoxy]-3,4-dihydro-1H-[1,8]naphthyridin-2-one]		39
O=C1CCc2ccc(OCCCCN3CCN(c4cccc5cc[nH]c45)CC3)nc2N1 [Example A24′, 7-{4-[4-(1H-Indol-7-yl)-piperazin-1-yl]-butoxy}-3,4-dihydro-1H-[1,8]naphthyridin-2-one]		6
CC(C)Oc1ccc(Cl)cc1N1CCN(CCCCOc2ccc3c(n2)NC(=O)CC3)CC1 [Example A25, 7-{4-[4-(5-Chloro-2-isopropoxy-phenyl)-piperazin-1-yl]-butoxy}-3,4-dihydro-1H-[1,8]naphthyridin-2-one]	27	
O=C1CCc2ccc(OCCCCN3CCN(c4cccc5[nH]ccc45)CC3)nc2N1 [Example A25′, 7-{4-[4-(1H-Indol-4-yl)-piperazin-1-yl]-butoxy}-3,4-dihydro-1H-[1,8]naphthyridin-2-one]		36
CC(C)Oc1ccccc1N1CCN(CCCCOc2ccc3c(n2)NC(=O)CC3)CC1 [Example A26, 7-{4-[4-(2-Isopropoxy-phenyl)-piperazin-1-yl]-butoxy}-3,4-dihydro-1H-[1,8]naphthyridin-2-one]	33	
Cn1ccc2c(N3CCN(CCCCOc4ccc5c(n4)NC(=O)CC5)CC3)cccc21 [Example A26′, 7-{4-[4-(1-Methyl-1H-indol-4-yl)-piperazin-1-yl]-butoxy}-3,4-dihydro-1H-[1,8]naphthyridin-2-one]		12
